Test results reported in publication PMC10754118, “Lipophilic Nucleoside Triphosphate Prodrugs of Anti‐HIV Active Nucleoside Analogs as Potential Antiviral Compounds” (Advanced Science, 2023).
Like-named read-outs stand apart in the source and are kept apart here.

Tests used:
HIV‐1 [HE] = test: Anti-HIV activity, HIV-1 in wild-type CEM/0 cells; format: cell-based; settings: Human immunodeficiency virus 1, CCRF-CEM, read-out: Antiviral activity CEM/0 HIV‐1 [HE] EC50
HIV‐2 [ROD] = test: Anti-HIV activity, HIV-2 in wild-type CEM/0 cells; format: cell-based; settings: Human immunodeficiency virus 2, CCRF-CEM, read-out: Antiviral activity CEM/0 HIV‐2 [ROD] EC50
Method: (§1) Part 9. Anti-HIV activity assay.
(§2) The produce was used as previously reported. 5 Inhibition of HIV-1(IIIB)- and HIV-2(ROD)-induced cytopathogenicity in wild-type CEM/0 and thymidine kinase-deficient CEM/TK– cell cultures was measured in […]
(§3) containing appropriate dilutions of the test compounds. After 4−5 days of incubation at 37 °C in a CO2-controlled humidified atmosphere, CEM giant (syncytium) cell formation was examined microscopically. The […]
(§4) giant cell formation by 50%.
(§5) Part 10. Primer-extension assays. […]

HIV‐2 [ROD)] = test: Anti-HIV activity, HIV-2 in thymidine kinase-deficient CEM/TK^− cells; format: cell-based
Method: as §1, §2, §3, §4, §5

in vitro = settings: human
Method: All TriPPPro‐compounds 10 and 20, as well as their parent nucleosides and the corresponding NTPs, were evaluated for their antiviral activity (expressed as EC50 values) against HIV‐1 (wild‐type CEM/0 cells) and HIV‐2 (wild‐type CEM/0 cells and thymidine kinase‐deficient (CEM/TK^−) cells) with concomitant determination of cytotoxicity in the same cell line (Table 3 ).

[1] = Chemical hydrolysis in phosphate buffer saline (PBS, pH 7.3); format: physicochemical; settings: PBS pH 7.3, 37 °C, read-out: PBS pH 7.3 t 1/2 (converted)
Method: Part 4. Chemical Hydrolysis of TriPPPro-compounds 10 and 20.
Second prepare 1.9 mM hydrolysis […]
Then, aliquots of 50 µL human

[2] = wild-type CEM/0 cells, mean ±SD n = 2–3
[3] = Human immunodeficiency virus 2, CEM-TK(-), thymidine kinase-deficient CEM/TK^− cells, mean ±SD n = 2–3; read-out: Antiviral activity CEM/TK^− HIV‐2 [ROD)] EC50
[4] = CEM/0 cells (wild-type CD4+ T-cells)
[5] = Human immunodeficiency virus 2, CEM-TK(-), read-out: Antiviral activity CEM/TK^− HIV‐2 [ROD)] EC50

| Structure (SMILES) | EC50 (HIV‐1 [HE]; [2]) [nM] | EC50 (HIV‐2 [ROD]; [2]) [nM] | EC50 (HIV‐2 [ROD)]; [3]) [nM] | EC50 (HIV‐2 [ROD)]; thymidine kinase-deficient CEM/TK^− cells, mean ±SD n = 2–3; read-out: Antiviral activity CEM/TK^− HIV‐2 [ROD)] EC50) [nM] | CC50 (in vitro; [4]) [nM] | CC50 (in vitro) [nM] | half-life at 1.9 mM [1] [days] | EC50 (HIV‐1 [HE]) [nM] | EC50 (HIV‐2 [ROD]) [nM] | EC50 (HIV‐2 [ROD)]; [5]) [nM] |
| --- | --- | --- | --- | --- | --- | --- | --- | --- | --- | --- |
| Cc1cn([C@H]2C[C@H](N=[N+]=[N-])[C@@H](CO)O2)c(=O)[nH]c1=O [1b (AZT), AZT, reference compound] | 14 ± 8.5 | 3.4 ± 2.1 | > 150000 | > 100000 | > 100000 | – | – | – | – | – |
| Nc1nc(=O)n([C@@H]2CS[C@H](CO)O2)cc1F [1c (FTC), FTC, reference compound] | 8.6 ± 5.7 | 20 ± 1 | 10 ± 10 | – | > 100000 | – | – | – | – | – |
| O=c1[nH]c(=O)n([C@H]2C[C@H](F)[C@@H](CO)O2)cc1Cl [1d (FddClU), FddClU, reference compound] | 820 ± 330 | 1950 ± 2630 | > 100000 | – | > 100000 | – | – | – | – | – |
| O=c1ccn([C@H]2C[C@H](F)[C@@H](CO)O2)c(=O)[nH]1 [1e (FddU), FddU, reference compound] | 210 ± 20 | 150 ± 17 | > 100000 | – | > 100000 | – | – | – | – | – |
| Cc1cn([C@H]2C[C@H](F)[C@@H](CO)O2)c(=O)[nH]c1=O [1f (FLT), FLT, reference compound] | 2.5 ± 2.9 | 4.3 ± 1.7 | > 100000 | – | > 100000 | – | – | – | – | – |
| O=c1[nH]c(=O)n([C@H]2C[C@H](O)[C@@H](CO)O2)cc1/C=C/Br [1g (BVDU), BVDU, reference compound] | > 250000 | > 250000 | > 250000 | – | – | 207000 ± 60000 | – | – | – | – |
| Nc1nc(NC2CC2)c2ncn([C@H]3C=C[C@@H](CO)C3)c2n1 [1h (ABC), abacavir, reference compound] | – | – | – | – | > 100000 | – | – | – | – | – |
| CCCCCCCCCCCCCCCCCCOP(=O)(OCC(CC)CCCC)OP(=O)(O)OP(=O)(O)OC[C@H]1O[C@@H](n2cc(C)c(=O)[nH]c2=O)C[C@@H]1N=[N+]=[N-] (stereo partly drawn) [10bw] | 160 ± 190 | 54 ± 28 | 6100 ± 3000 | – | 45600 | – | > 83.3 | – | – | – |
| CCCCCCCCCCCCCCCCCCOP(=O)(OCC(CC)CCCC)OP(=O)(O)OP(=O)(O)OC[C@@H]1O[C@H](n2cc(F)c(N)nc2=O)CS1 (stereo partly drawn) [10cw] | 210 ± 60 | 180 ± 100 | 120 ± 100 | – | 64000 ± 23600 | – | > 83.3 | – | – | – |
| CCCCCCCCCCCCCCCCCCP(=O)(OCCCC)OP(=O)(O)OP(=O)(O)OC[C@@H]1O[C@H](n2cc(F)c(N)nc2=O)CS1 (stereo partly drawn) [10cx] | – | – | – | – | 46000 | – | > 83.3 | 49 ± 45 | 94 ± 23 | 11 |
| CCCCCCCCCCCCCCCCCCP(=O)(OCc1ccc(OC(=O)CCCC)cc1)OP(=O)(O)OP(=O)(O)OC[C@@H]1O[C@H](n2cc(F)c(N)nc2=O)CS1 (stereo partly drawn) [10cz] | 160 ± 60 | 140 ± 40 | 20 ± 21 | – | 66000 ± 35600 | – | > 62.5 | – | – | – |
| CCCCCCCCCCCCCCCCCCOP(=O)(OCC(CC)CCCC)OP(=O)(O)OP(=O)(O)OC[C@H]1O[C@@H](n2cc(Cl)c(=O)[nH]c2=O)C[C@@H]1F (stereo partly drawn) [10dw] | 1200 ± 50 | 2200 ± 1240 | > 20000 | – | 56100 ± 15800 | – | > 83.3 | – | – | – |
| CCCCCCCCCCCCCCCCCCP(=O)(OCCCC)OP(=O)(O)OP(=O)(O)OC[C@H]1O[C@@H](n2cc(Cl)c(=O)[nH]c2=O)C[C@@H]1F (stereo partly drawn) [10dx] | – | – | – | – | 54400 ± 15900 | – | > 83.3 | 2590 ± 710 | 2230 ± 1200 | 3210 ± 1120 |
| CCCCCCCCCCCCCCCCCCOP(=O)(OCC(CC)CCCC)OP(=O)(O)OP(=O)(O)OC[C@H]1O[C@@H](n2cc(C)c(=O)[nH]c2=O)C[C@@H]1F (stereo partly drawn) [10ew] | 1500 ± 1390 | 860 ± 190 | 280 ± 120 | – | 52600 ± 10900 | – | > 83.3 | – | – | – |
| CCCCCCCCCCCCCCCCCCP(=O)(OCCCC)OP(=O)(O)OP(=O)(O)OC[C@H]1O[C@@H](n2cc(C)c(=O)[nH]c2=O)C[C@@H]1F (stereo partly drawn) [10ex] | – | – | – | – | 43600 | – | 6.17 | 390 ± 130 | 520 ± 670 | 1010 ± 1140 |
| CCCCCCCCCCCCCCCCCCOP(=O)(OCc1ccc(OC(=O)CCCC)cc1)OP(=O)(O)OP(=O)(O)OC[C@H]1O[C@@H](n2cc(C)c(=O)[nH]c2=O)C[C@@H]1F (stereo partly drawn) [10ey] | 300 ± 300 | 780 ± 300 | 1580 ± 1970 | – | 54100 ± 15800 | – | > 16.7 | – | – | – |
| CCCCCCCCCCCCCCCCCCP(=O)(OCc1ccc(OC(=O)CCCC)cc1)OP(=O)(O)OP(=O)(O)OC[C@H]1O[C@@H](n2cc(C)c(=O)[nH]c2=O)C[C@@H]1F (stereo partly drawn) [10ez] | 460 ± 360 | 460 ± 400 | 1830 ± 1650 | – | 45300 ± 16700 | – | 2.12 | – | – | – |
| CCCCCCCCCCCCCCCCCCOP(=O)(OCC(CC)CCCC)OP(=O)(O)OP(=O)(O)OC[C@H]1O[C@@H](n2ccc(=O)[nH]c2=O)C[C@@H]1F (stereo partly drawn) [10fw] | 370 ± 470 | 140 ± 62 | 110 ± 140 | – | 63500 ± 27200 | – | > 83.3 | – | – | – |
| CCCCCCCCCCCCCCCCCCP(=O)(OCCCC)OP(=O)(O)OP(=O)(O)OC[C@H]1O[C@@H](n2ccc(=O)[nH]c2=O)C[C@@H]1F (stereo partly drawn) [10fx] | – | – | – | – | 67300 ± 33800 | – | > 83.3 | 41 ± 44 | 29 ± 7.1 | 150 ± 60 |
| CCCCCCCCCCCCCCCCCCOP(=O)(OCc1ccc(OC(=O)CCCC)cc1)OP(=O)(O)OP(=O)(O)OC[C@H]1O[C@@H](n2ccc(=O)[nH]c2=O)C[C@@H]1F (stereo partly drawn) [10fy] | 26 ± 28 | 14 ± 16 | 360 ± 240 | – | 43300 ± 5100 | – | 15 | – | – | – |
| CCCCCCCCCCCCCCCCCCP(=O)(OCc1ccc(OC(=O)CCCC)cc1)OP(=O)(O)OP(=O)(O)OC[C@H]1O[C@@H](n2ccc(=O)[nH]c2=O)C[C@@H]1F (stereo partly drawn) [10fz] | 64 ± 80 | 39 ± 33 | 160 ± 40 | – | 42000 ± 10600 | – | 8.46 | – | – | – |
| CCCCCCCCCCCCCCCCCCOP(=O)(OCC(CC)CCCC)OP(=O)(O)OP(=O)(O)OC[C@H]1O[C@@H](n2cc(/C=C/Br)c(=O)[nH]c2=O)C[C@@H]1O (stereo partly drawn) [10gw] | > 10000 | 4210 ± 370 | 11400 ± 4240 | – | 60300 ± 20700 | – | > 83.3 | – | – | – |
| CCCCCCCCCCCCCCCCCCP(=O)(OCCCC)OP(=O)(O)OP(=O)(O)OC[C@H]1O[C@@H](n2cc(/C=C/Br)c(=O)[nH]c2=O)C[C@@H]1O (stereo partly drawn) [10gx] | – | – | – | – | 51500 ± 17000 | – | > 41.7 | > 10000 | > 10000 | 24000 ± 2720 |
| CCCCCCCCCCCCCCCCCCP(=O)(OCc1ccc(OC(=O)CCCC)cc1)OP(=O)(O)OP(=O)(O)OC[C@H]1O[C@@H](n2cc(/C=C/Br)c(=O)[nH]c2=O)C[C@@H]1O (stereo partly drawn) [10gz] | 7580 ± 2200 | 8010 ± 2810 | 11200 ± 4990 | – | 43900 ± 8300 | – | > 62.5 | – | – | – |
| CCCCCCCCCCCCCCCCCCOP(=O)(OCC(CC)CCCC)OP(=O)(O)OP(=O)(O)OC[C@@H]1C=C[C@H](n2cnc3c(NC4CC4)nc(N)nc32)C1 (stereo partly drawn) [10hw] | 100 ± 30 | 180 ± 110 | 26 ± 35 | – | > 100000 | – | 7.54 | – | – | – |
| Cc1cn([C@H]2C[C@H](N=[N+]=[N-])[C@@H](CO[P@](=O)(O)O[P@](=O)(O)OP(=O)(O)O)O2)c(=O)[nH]c1=O [AZTTP, reference compound] | – | – | – | – | > 100000 | – | – | 6.9 ± 8.7 | 5.5 ± 4 | 57900 ± 10900 |
